Reference: US7880059B2, “Production of proanthocyanidins to improve forage quality” (The Samuel Roberts Noble Foundation, priority 2007, dated 2011)

T1: UGT78G1 (Medicago truncatula, UniProt A6XNC6)
T1 sequence (A6XNC6 1-454): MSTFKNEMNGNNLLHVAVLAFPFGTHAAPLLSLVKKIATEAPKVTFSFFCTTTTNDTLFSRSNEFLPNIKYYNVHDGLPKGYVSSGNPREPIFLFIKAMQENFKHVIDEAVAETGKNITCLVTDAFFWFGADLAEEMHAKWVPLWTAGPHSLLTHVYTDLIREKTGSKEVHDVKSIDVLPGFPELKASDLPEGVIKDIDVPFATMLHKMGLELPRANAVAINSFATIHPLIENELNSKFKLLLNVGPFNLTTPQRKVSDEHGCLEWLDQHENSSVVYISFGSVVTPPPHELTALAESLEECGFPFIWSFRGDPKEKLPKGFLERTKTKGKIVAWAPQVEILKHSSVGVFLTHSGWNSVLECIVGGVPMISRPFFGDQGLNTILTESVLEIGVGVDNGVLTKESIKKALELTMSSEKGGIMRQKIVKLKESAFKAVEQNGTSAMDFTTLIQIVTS


Assays:
UGT78G1 [1] = molecular target: T1, UGT78G1; test: UGT78G1 enzyme reactions with acceptor substrates, products analyzed by HPLC; format: biochemical; parameters: hexahistidine tag with thrombin cleavage site (pET28a(+)) (N); made in house; host or cells: E. coli BL21 (DE3)
Source text: Reactions were stopped with TCA and products analyzed by HPLC as described above.

UGT78G1 [2] = molecular target: T1, UGT78G1; test: Kinetic analysis of UGT78G1 (GT83F) with (iso)flavonoid acceptor substrates, UDP-[14C]-glucose donor; details: for Kcat/Km ratio: unit not given; for Kcat / Km / Vmax: recombinant UGT78G1, donor UDP-glucose, 30° C., pH 7.0; for Vmax compared with that for most of the other substrates / substrate quality for UGT78G1 in vitro: in words
Protocol: The PCR product was purified, ligated to pGEMTeasy vector (Promega, Madison, Wis., USA), sequenced, excised and re-cloned between the BamHI and NotI sites of pET28a(+) (Novagen, Madison, Wis., USA) with a hexahistidine tag and a thrombin cleavage site. E. coli BL21 (DE3) cells harboring the expression construct were grown to an OD600 of 0.4-0.5, and expression was initiated by addition of isopropyl 1-thio-β-D-galactopyranoside (IPTG) at a final concentration of 0.2 mM, with further incubation with shaking overnight at 16° C. The enzyme was purified from E. coli lysates by nickel affinity chromatography.
Reactions were stopped with TCA after 15 min incubation at 30° C. Samples were extracted with 250 μl of ethyl acetate, and 200 μl were taken for liquid scintillation counting (Beckman LS6500). Data were analyzed using Hyper32 software for the analysis of enzyme-kinetic data (J. S. Easterby, University of Liverpool, Liverpool, UK; available at www.liv.ac.uk/˜jse/software.html).

UGT78G1 [3] = molecular target: T1, UGT78G1; parameters: hexahistidine tag with thrombin cleavage site (pET28a(+)) (N); made in house; host or cells: E. coli BL21 (DE3); details: in vitro (Modolo et al, 2007); cited from earlier work
[4] = substrate: O=c1c(O)c(-c2ccc(O)cc2)oc2cc(O)cc(O)c12; test: purified protein, by the assay type; details: other: recombinant UGT78G1, donor UDP-glucose, 30° C., pH 7.0
[5] = substrate: O=c1c(O)c(-c2ccc(O)c(O)c2)oc2cc(O)cc(O)c12; test: purified protein, by the assay type; details: other: recombinant UGT78G1, donor UDP-glucose, 30° C., pH 7.0
[6] = substrate: O=c1cc(-c2ccc(O)cc2)oc2cc(O)cc(O)c12; test: purified protein, by the assay type; details: other: recombinant UGT78G1, donor UDP-glucose, 30° C., pH 7.0
[7] = substrate: O=c1c(-c2ccc(O)cc2)coc2cc(O)cc(O)c12; test: purified protein, by the assay type; details: other: recombinant UGT78G1, donor UDP-glucose, 30° C., pH 7.0

Molecule	position of glycosylation by UGT78G1 (UGT78G1 [1])	Kcat (UGT78G1 [2]) [s⁻¹]	Km (UGT78G1 [2]) [µM]	Vmax (UGT78G1 [2]) [µmol/min]	also measured
O=c1cc(-c2ccc(O)cc2)oc2cc(O)cc(O)c12 [apigenin]	7-O-position				Kcat/Km ratio (UGT78G1 [2]): 1,534
COc1ccc(-c2coc3cc(O)cc(O)c3c2=O)cc1 [biochanin A (4′-methoxy genistein)]	7-O-position	0.012	11.7	0.3666	
O=c1c(-c2ccc(O)cc2)coc2cc(O)ccc12 [daidzein]			1.6		
COc1ccc(-c2coc3cc(O)ccc3c2=O)cc1 [formononetin]	7-O-position	0.0029	1.5	0.0879	preference (Kcat/Km) for formononetin over daidzein (UGT78G1 [2]; relative to daidzein): about 2 fold
O=c1c(-c2ccc(O)cc2)coc2cc(O)cc(O)c12 [genistein]	7-O-position	0.004		1.2050	Km of genistein relative to Km of daidzein (UGT78G1 [2]; relative to daidzein): 23 fold; Kcat/Km ratio (UGT78G1 [2]): 1,098
O=c1c(O)c(-c2ccc(O)cc2)oc2cc(O)cc(O)c12 [kaempferol]	3-position	0.053		1.5830	Vmax compared with that for most of the other substrates (UGT78G1 [2]): much higher
Oc1ccc(-c2[o+]c3cc(O)cc(O)c3cc2O)cc1 [pelargonidin]		0.0057	71.8	0.1698	substrate quality for UGT78G1 in vitro (UGT78G1 [2]): relatively poor substrates; activity of UGT78G1 with substrate (UGT78G1 [3]): shows activity
O=c1c(O)c(-c2ccc(O)c(O)c2)oc2cc(O)cc(O)c12 [quercetin]	3-position	0.029		0.8557	Vmax compared with that for most of the other substrates (UGT78G1 [2]): much higher
cyanidin		0.0068	52	0.2025	substrate quality for UGT78G1 in vitro (UGT78G1 [2]): relatively poor substrates; activity of UGT78G1 with substrate (UGT78G1 [3]): shows activity
UGT78G1 (Medicago truncatula) (protein) MSTFKNEMNGNNLLHVAVLAFPFGTHAAPLLSLVKKIATEAPKVTFSFFCTTTTNDTLFSRSNEFLPNIKYYNVHDGLPKGYVSSGNPREPIFLFIKAMQENFKHVIDEAVAETGKNITCLVTDAFFWFGADLAEEMHAKWVPLWTAGPHSLLTHVYTDLIREKTGSKEVHDVKSIDVLPGFPELKASDLPEGVIKDIDVPFATMLHKMGLELPRANAVAINSFATIHPLIENELNSKFKLLLNVGPFNLTTPQRKVSDEHGCLEWLDQHENSSVVYISFGSVVTPPPHELTALAESLEECGFPFIWSFRGDPKEKLPKGFLERTKTKGKIVAWAPQVEILKHSSVGVFLTHSGWNSVLECIVGGVPMISRPFFGDQGLNTILTESVLEIGVGVDNGVLTKESIKKALELTMSSEKGGIMRQKIVKLKESAFKAVEQNGTSAMDFTTLIQIVTS					Km [4]: 89.8 µM; Km [5]: 28.7 µM; Km [6]: 1.5 µM; Vmax [6]: 0.0688 µmol/min; kcat [6]: 0.0023 s⁻¹; kcat/Km [6]: 1530 M⁻¹ s⁻¹; Km [7]: 36.7 µM
